The target of assay [1] is ELIC WT (Dickeya chrysanthemi, UniProt P0C7B7, INS163G). In words: biochemical. It counts as binding, Erwinia chrisanthemi. The conditions noted are these: ITC, ELIC WT in detergent (UDM), 4°C, single-site isotherm; read-out: effective dissociation constant (Keff).
The target of assay [2] is ELIC T28D (Dickeya chrysanthemi, UniProt P0C7B7, INS163G/T28D). In words: biochemical. The conditions noted are these: read-out: Keff. It is filed as binding, Erwinia chrisanthemi.

The structures appear in SMILES notation.

Regarding `CC(=O)OCC[N+](C)(C)C` [acetylcholine], the values for the Kd in assay [1] and in assay [2] were 2500 µM and 2000 µM, respectively.

The values above are taken from PMC4778918, “Signal Transduction at the Domain Interface of Prokaryotic Pentameric Ligand-Gated Ion Channels” (PLoS Biology, 2016).
